Where two headings read alike, the source gives them in different places.

Type in all cases: cell-based, human
The test system of assay [1] is SW-480. As to the kind of experiment: ATP luminescence proliferation assay, SW-480. Conditions: ATP luminescence, SW480, 96 h incubation; read-out: EC50 SW480 (96 h). In short, it runs like this: (§1)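 Free compounds and conjugates tested as 1:3 dilution series on cells seeded 3 h earlier at 1.0×10^3/well. Exposure 48, 72 or 96 h; ATP-based luminescence; EC50 taken at 50% proliferation reduction.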

The subject of assay [2] is SKOV3. Put plainly: 3H thymidine proliferation assay, SKOV3. The note with it: 3H thymidine method, 72 h incubation; read-out: EC50, SKOV3. In short, it runs like this:
(§2)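 Proliferation is read as incorporated ^3H-thymidine (1.0 μCi/well, final 24 h) after 72 h with 1:3 dilution series of free compound or conjugate; 1.0×10^4 cells/well. The EC50 is where proliferation falls by 50%.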

The subject of assay [3] is DMS53. Put plainly: ATP luminescence proliferation assay, DMS53. Conditions: ATP luminescence. The essentials:
as §1

Assay [4] relates to CEM-C1. As to the kind of experiment: 3H thymidine proliferation assay, CEM-C1. The note with it: 3H thymidine method, 72 h incubation; read-out: EC50, CEM-C1. In short, it runs like this: as §2
The subject of assay [5] is LNCaP. Put plainly: 3H thymidine proliferation assay, LNCaP. The note with it: 3H thymidine method, 72 h incubation; read-out: EC50, LNCaP. In short, it runs like this:
as §2

In assay [6] the test system is UO-31. As to the kind of experiment: ATP luminescence proliferation assay, UO-31. The note with it: ATP luminescence, UO-31, 48 h incubation; read-out: EC50 UO-31 (48 h). The procedure:
This example generally describes the procedures used to assay the antiproliferative activity of compounds of this invention or their conjugates. Human tumor cell lines were obtained from the American Type Culture Collection (ATCC), P.O. Box 1549, Manassas, Va. 20108, USA, and cultured according to instruction from the ATCC. Cells were seeded at 1.0×10^3 or 1.0×10^4 cells/well in 96-well plates for 3 h for ATP assays or ^3H thymidine assays, respectively. 1:3 serial dilutions of free (unconjugated) compounds or their conjugates were added to the wells. Plates were allowed to incubate for 24 to 72 h. The ^3H thymidine plates were pulsed with 1.0 μCi of ^3H-thymidine per well for the last 24 hours of the total incubation period, harvested, and read on a Top Count Scintillation Counter (Packard Instruments, Meriden, Conn.). ATP levels in the ATP plates were measured using the […]-GLO® Luminescent Cell Viability kit following the manufacturer's manual and read on a GLOMAX® 20/20 luminometer (both from Promega, Madison, Wis., USA). The EC50 values—the concentration at which an agent inhibits or reduces cell proliferation by 50% —were determined using PRISM™ software, version 4.0 (GraphPad Software, La Jolla, Calif., USA).
Using the ^3H thymidine or the ATP luminescence assay, or both, the activities of compounds of this invention were assayed against the following cancer cell lines: HCT-15 (colorectal cancer, multi-drug resistant (MDR)); Hep3B (liver cancer); LNCaP (prostate cancer, androgen receptor positive (AR^+)); MDA-MB-231 (breast cancer, estrogen receptor, progesterone receptor, and Her2 negative (triple negative)); A2058 (melanoma); U-87 MG (glioblastoma); NCI-H460 (NSCLC); A549 (NSCLC); HPAC (pancreatic cancer, primary); PC3 (prostate cancer, AR); BT474 (breast cancer, Her2 highly positive (Her2hi)); SKOV3 (ovarian cancer, Her2hi); 786-O (renal cancer); UO-31 (renal cancer, MDR); NCI-H740 (SCLC); DMS53 (SCLC); SK-BR3 (breast cancer, Her2hi); ZR-75 (breast cancer, estrogen receptor positive); OVCAR3 (ovarian cancer); HL-60 (APL); OVCAR8/Adr (ovarian cancer, MDR); CEM-Cl (ALL); Nomo-1 (AML); RPMI-8226 (MM)); Raji (lymphoma); SW-480 (colorectal cancer, metastatic); SW-620 (colorectal cancer); and H226 (lung cancer). (Not all compounds were assayed against all cell lines.)
Table 3 provides the data for the ATP luminescence proliferation assays, with an incubation period of 48, 72, or 96 h, as noted.

In assay [7] the test system is Nomo-1. Put plainly: ATP luminescence proliferation assay, Nomo-1. Conditions: ATP luminescence. The essentials: as §1
The subject of assay [8] is ZR-75. As to the kind of experiment: 3H thymidine proliferation assay, ZR-75. The note with it: 3H thymidine method, 72 h incubation; read-out: EC50, ZR-75. In short, it runs like this:
as §2

The test system of assay [9] is HPAC. As to the kind of experiment: 3H thymidine proliferation assay, HPAC. The note with it: 3H thymidine method, 72 h incubation; read-out: EC50, HPAC. The essentials: as §2
Assay [10] has as its system SKOV3. As to the kind of experiment: ATP luminescence proliferation assay, SKOV3. The note with it: ATP luminescence, SKOV3, 72 h incubation; read-out: EC50 SKOV3 (72 h). The essentials:
as §1

Assay [11] deals with U-87 MG. Put plainly: ATP luminescence proliferation assay, U-87 MG. The note with it: ATP luminescence, 72 h incubation, read-out: EC50 U-87 MG (72 h). In short, it runs like this: as §1
For assay [12], the system named is SK-BR3. As to the kind of experiment: 3H thymidine proliferation assay, SK-BR3. The note with it: 3H thymidine method, 72 h incubation. In short, it runs like this: as §2
Assay [13] relates to NCI-H460. Put plainly: ATP luminescence proliferation assay, NCI-H460. Conditions: ATP luminescence, NCI-H460, 72 h incubation; read-out: EC50 NCI-H460 (72 h). The essentials: as §1
The subject of assay [14] is PC3. Put plainly: ATP luminescence proliferation assay, PC3. Conditions: ATP luminescence, PC3, 48 h incubation; read-out: EC50 PC3 (48 h). The essentials: as §1
For assay [15], the system named is RPMI-8226. As to the kind of experiment: 3H thymidine proliferation assay, RPMI-8226. The note with it: 3H thymidine method, 72 h incubation; read-out: EC50, RPMI-8226. The essentials:
as §2

In assay [16] the test system is 786-O. Put plainly: ATP luminescence proliferation assay, 786-O. Conditions: ATP luminescence, 786-O, 72 h incubation; read-out: EC50 786-O (72 h). In short, it runs like this: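 Cells seeded at 1.0×10^3 cells/well for 3 h, then exposed to 1:3 serial dilutions of free compounds or conjugates for 48, 72 or 96 h, as noted. ATP measured by luminescent cell viability kit; EC50 taken as concentration reducing proliferation by 50%.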

Assay [17] concerns Raji. As to the kind of experiment: ATP luminescence proliferation assay, Raji. The note with it: ATP luminescence, 72 h incubation, read-out: EC50 Raji (72 h). In short, it runs like this:
as §1

The subject of assay [18] is U-87 MG. Put plainly: 3H thymidine proliferation assay, U-87 MG. The note with it: 3H thymidine method, 72 h incubation; read-out: EC50, U-87 MG. In short, it runs like this:
as §2

As to `CC[C@H](C)[C@H](NC(=O)[C@H]1CCCCN1C)C(=O)N(COC(=O)CC(C)C)[C@H](C[C@@H](OC(C)=O)c1nc(C(=O)N[C@@H](Cc2ccccc2)C(=O)OC)cs1)C(C)C` [Compound 29], the EC50 in assay [1] came out at 2.7 nM; in assay [2], 0.029 nM; in assay [3] (DMS53, 48 h incubation, read-out: EC50 DMS53 (48 h)), 5.3 nM; in [4] it was 0.019 nM; in assay [5] it was 0.54 nM; in [6], 2.7 nM. In addition, the EC50 is 0.24 nM in [7] (Nomo-1, 48 h incubation, read-out: EC50 Nomo-1 (48 h)); 3.8 nM in assay [8]; 0.069 nM in assay [9]; 1.3 nM in assay [10]; 4.9 nM in assay [11]; 1.1 nM in assay [12]. Besides, the EC50 in [13] stood at 3 nM; in assay [14] it was 3.4 nM; in assay [15], 0.034 nM; in [16] it was 2.8 nM; in assay [17], 2.1 nM; in [18], 0.064 nM.
Turning to `CCC[C@H](NC(=O)[C@H](Cc1ccccc1)NC(=O)c1csc([C@@H](C[C@H](C(C)C)N(C)C(=O)[C@@H](NC(=O)[C@H]2CCCCN2C)[C@@H](C)CC)OC)n1)C(=O)OC` [Compound 19], the EC50 is 52 nM in [1]; over 100 nM in [2]; 87 nM in assay [3] (DMS53, 72 h incubation, read-out: EC50 DMS53 (72 h)); 22 nM in [4]; over 100 nM in assay [5]; over 100 nM in assay [6]. The EC50 in assay [7] (Nomo-1, 72 h incubation, read-out: EC50 Nomo-1 (72 h)) is 5.2 nM; in assay [8] it was 34 nM; in assay [9], over 100 nM; in assay [10] it was 15 nM; in assay [11], over 100 nM; in [12] it was over 100 nM. Further, the EC50 is 43 nM in assay [13]; about 33 nM in assay [14]; 23 nM in [15]; 40 nM in assay [16]; 9.2 nM in [17]; over 100 nM in assay [18].

One may read the EC50 as the concentration that produces a half-maximal response.

(Values after US20130204033A1, “ANTIPROLIFERATIVE COMPOUNDS, CONJUGATES THEREOF, METHODS THEREFOR, AND USES THEREOF” (Medarex, Inc., priority 2009, published 2013).)
